Where two headings read alike, the source gives them in different places.
Legend:
tactile allodynia = assay: Chronic pain model: spinal nerve (L5/L6) ligation, tactile allodynia measured with von Frey hairs; type: in vivo; conditions: rats
Description: A model for chronic pain (in particular peripheral neuropathy such as causalgia) involves the surgical ligation of the L5 (and optionally the L6) spinal nerves on one side in experimental animals. Rats recovering from the surgery gain weight and display a level of general activity similar to that of normal rats. However, these rats develop abnormalities of the foot, wherein the hindpaw is moderately everted and the toes are held together. More importantly, the hindpaw on the side affected by the surgery appears to become sensitive to pain from low-threshold mechanical stimuli, such as that producing a faint sensation of touch in a human, within about 1 week following surgery. This sensitivity to normally non-painful touch is called “tactile allodynia” and lasts for at least two months. The response includes lifting the affected hindpaw to escape from the stimulus, licking the paw and holding it in the air for many seconds. None of these responses is normally seen in the control group.
Rats are anesthetized before surgery. The surgical site is shaved and prepared either with betadine or Novacaine. Incision is made from the thoracic vertebra Xlll down toward the sacrum. Muscle tissue is separated from the spinal vertebra (left side) at the L4-S2 levels. The L6 vertebra is located and the transverse process is carefully removed with a small rongeur to expose the L4-L6 spinal nerves. The L5 and L6 spinal nerves are isolated and tightly ligated with 6-0 silk thread. The same procedure is done on the right side as a control, except no ligation of the spinal nerves is performed.
A complete hemostasis is confirmed, then the wounds are sutured. A small amount of antibiotic ointment is applied to the incised area, and the rat is transferred to the recovery plastic cage under a regulated heat-temperature lamp. On the day of the experiment, at least seven days after the surgery, six rats per test group are administered the test drugs by intraperitoneal (i.p.) injection or oral gavage. For i.p. injection, the compounds are formulated in approximately 50% DMSO and given in a volume of 1 ml/kg body weight. The compound of Example 7 was tested at doses ranging between 30 and 3000 ng/kg. A volume equal to 1 ml/kg body weight of an appropriate concentration (i.e.. 1 mg/ml for a 1 mg/kg dose) of the compound of Example 7 formulated in approximately 50% DMSO was injected using an 18-gauge, 3-inch gavage needle that is slowly inserted through the esophagus into the stomach.
Tactile allodynia is measured prior to and 30 minutes after drug administration using von Frey hairs that are a series of fine hairs with incremental differences in stiffness. Rats are placed in a plastic cage with a wire mesh bottom and allowed to acclimate for approximately 30 minutes. The von Frey hairs are applied perpendicularly through the mesh to the mid-plantar region of the rats' hindpaw with sufficient force to cause slight buckling and held for 6-8 seconds. The applied force has been calculated to range from 0.41 to 15.1 grams. If the paw is sharply withdrawn, it is considered a positive response. A normal animal will not respond to stimuli in this range, but a surgically ligated paw will be withdrawn in response to a 1-2 gram hair. The 50% paw withdrawal threshold is determined using the method of Dixon, W. J., Ann. Rev. Pharmacol. Toxicol. 20:441-462 (1980). The post-drug threshold is compared to the pre-drug threshold and the percent reversal of tactile sensitivity is calculated based on a normal threshold of 15.1 grams. […] Compared to a saline solution, this compound reversed the allodynic pain by 25% at an i.p. dose of 100 ng/kg, 60% at 300 ng/kg, 90% at […] and 92% at 3000 ng/kg.

receptors for PGE2 = conditions: cited from earlier work
[1] = i.p. dose of 100 ng/kg, 30 minutes after drug administration
[2] = i.p. dose of 300 ng/kg, 30 minutes after drug administration

| Structure (SMILES) | reversal of allodynic pain (percent reversal of tactile sensitivity) (tactile allodynia; i.p. dose of 30 ng/kg, 30 minutes after drug administration) | reversal of allodynic pain (percent reversal of tactile sensitivity) (tactile allodynia; [1]) | reversal of allodynic pain (percent reversal of tactile sensitivity) (tactile allodynia; [2]) | reversal of allodynic pain (percent reversal of tactile sensitivity) (tactile allodynia; i.p., dose figure not printed ("at ng/kg")) | response to the tactile stimuli that indicate tactile allodynia (tactile allodynia; doses between 30 and 3000 ng/kg) | reversal of allodynic pain (percent reversal of tactile sensitivity) (tactile allodynia; i.p. dose of 3000 ng/kg, 30 minutes after drug administration) | reversal of allodynic pain (percent reversal of tactile sensitivity) (tactile allodynia; i.p. dose printed as 100 mg/kg, 30 minutes after drug administration) | effect on PGE2 action in tissue (receptors for PGE2; cat trachea or chick ileum) | effect on PGE2 action in tissue (receptors for PGE2; guinea pig ileum or dog fundus) |
| --- | --- | --- | --- | --- | --- | --- | --- | --- | --- |
| CCN(Cc1cc(Br)ccc1OCc1ccccc1)c1ccc(C(=O)O)cn1 [6-[(2-Benzyloxy-5-bromobenzyl)ethylamino]nicotinic acid] | 10% | 50% | 55% | 60% |  |  |  |  |  |
| CCN(Cc1ccccc1SCc1ccccc1)c1ccc(C(=O)O)cn1 [Example 7, 6-[(2-Benzylsulfanylbenzyl)ethylamino]nicotinic acid] |  | 25% | 60% |  | able to reduce the response to the tactile stimuli | 92% | 90% |  |  |
| CC(=O)NNC(=O)N1Cc2ccccc2Oc2ccc(Cl)cc21 [SC-19220] |  |  |  |  |  |  |  | not on other tissues | blocks the effect of PGE2 |

— patent US7935825B2, “Arylsulfanyl and heteroarylsulfanyl derivatives for treating pain” (Allergan, Inc., priority 2001, dated 2011)
